# Columns and labels:
# Format in all cases: cell-based
# Pythium graminicola = experiment: Inhibition test of mycelial growth against the genus Pythium (PSA plate); settings: compound alone, 20° C., 3 days
# Protocol: A mycangium (diameter: 4 mm) obtained by precultivation was transplanted on PSA containing a chemical in a prescribed concentration and then cultured at room temperature of 20° C. for 3 days, followed by measuring a diameter of the grown mycangium to determine an inhibition rate of mycelial growth (%). In addition, an expected value of the inhibition rate was calculated according to the following Colby's formula and listed in parentheses of Tables 1 to 3. […] Colby's formula: x+y−xy/100 x: Inhibition rate of growth of the component (a) alone (%) y: Inhibition rate of growth of the component (b) alone (%)
# Botrytis cinerea = experiment: Inhibition test of mycelial growth against gray mold (YS liquid medium, 96-well microplate); settings: compound alone, 25° C., three days
# Protocol: On a YS (yeast extract+sucrose) liquid culture medium, a certain amount of a chemical solution prepared such that a final concentration of each chemical became a concentration at which the test was carried out was mixed. 100 μL of each of the chemical-containing YS liquid culture media was aliquoted into each well of a 96-well microplate. Thereafter, 50 μL of a spore suspension of gray mold whose spore concentration had been prepared as shown in the following tables was aliquoted into each well and cultivated at 25° C. under a light-dark cycle (light period: 16 hours, dark period: 8 hours). Three days after the cultivation, an area of the well bottom covered by the propagated gray mold hyphae was microscopically examined to determine an inhibition rate of growth (%). The inhibition rate of growth was visually examined while defining an area covered by hyphae in a non-treated well as 100. For the non-treatment, a chemical-free YS liquid culture medium was used. In addition, an expected value of the inhibition rate calculated according to the Colby's formula in the same manner as that in the foregoing Test Example 1 was listed in parentheses of Tables 7 to 13.
# Rhizoctonia solani = experiment: Inhibition test of mycelial growth against the genus Rhizoctonia (PSA plate); settings: compound alone, 20° C., 4 days
# Protocol: A mycangium (diameter: 4 mm) obtained by precultivation was transplanted on PSA containing a chemical in a prescribed concentration and then cultured at room temperature of 20° C. for 4 days, followed by measuring a diameter of the grown mycangium to determine an inhibition rate of mycelial growth (%). In addition, an expected value of the inhibition rate calculated according to the Colby's formula in the same manner as that in the foregoing Test Example 1 was listed in parentheses of Tables 4 to 6.
# [1] = Pythium graminicola, 72 h, read-out: Inhibition Rate of Mycelial Growth against Pythium graminicola (%)
# [2] = Pythium graminicola, 72 h, 10 ppm, read-out: Inhibition Rate of Mycelial Growth against Pythium graminicola (%)
# [3] = Pythium graminicola, 72 h, 100 ppm, read-out: Inhibition Rate of Mycelial Growth against Pythium graminicola (%)
# [4] = Rhizoctonia solani, 96 h, 0.1 ppm, read-out: Inhibition Rate of Mycelial Growth against Rhizoctonia solani (%)
# [5] = Rhizoctonia solani, 96 h, 1 ppm, read-out: Inhibition Rate of Mycelial Growth against Rhizoctonia solani (%)
# [6] = Rhizoctonia solani, 96 h, 10 ppm, read-out: Inhibition Rate of Mycelial Growth against Rhizoctonia solani (%)
# [7] = Botrytis cinerea, 72 h, read-out: Inhibition Rate of Mycelial Growth against Botrytis cinerea (%)
# [8] = Botrytis cinerea, 72 h, 0.78 ppm, read-out: Inhibition Rate of Mycelial Growth against Botrytis cinerea (%)
# [9] = Botrytis cinerea, 72 h, 1.56 ppm, read-out: Inhibition Rate of Mycelial Growth against Botrytis cinerea (%)
smiles,measurement,setting,value
CO/C=C(/C(=O)OC)c1ccccc1Oc1cc(Oc2ccccc2C#N)ncn1 [azoxystrobin],Inhibition Rate of Mycelial Growth against Pythium graminicola (%),Pythium graminicola; 10 ppm,89%
same,Inhibition Rate of Mycelial Growth against Pythium graminicola (%),Pythium graminicola; 100 ppm,100%
same,Inhibition Rate of Mycelial Growth against Botrytis cinerea (%),Botrytis cinerea; 3.13 ppm,0%
same,Inhibition Rate of Mycelial Growth against Botrytis cinerea (%),Botrytis cinerea; 6.25 ppm,0%
same,Inhibition Rate of Mycelial Growth against Botrytis cinerea (%),Botrytis cinerea; 12.5 ppm,1%
same,Inhibition Rate of Mycelial Growth against Rhizoctonia solani (%),Rhizoctonia solani; 0.1 ppm,4%
same,Inhibition Rate of Mycelial Growth against Rhizoctonia solani (%),Rhizoctonia solani; 1 ppm,27%
same,Inhibition Rate of Mycelial Growth against Rhizoctonia solani (%),Rhizoctonia solani; 10 ppm,41%
CNC(=O)/C(=N/OC)c1ccccc1Oc1ccccc1 [metominostrobin],inhibition at 25 ppm,"Botrytis cinerea; Botrytis cinerea, 72 h, 25 ppm, read-out: Inhibition Rate of Mycelial Growth against Botrytis cinerea (%)",0%
same,inhibition at 50 ppm,"Botrytis cinerea; Botrytis cinerea, 72 h, 50 ppm, read-out: Inhibition Rate of Mycelial Growth against Botrytis cinerea (%)",1%
same,inhibition at 100 ppm,"Botrytis cinerea; Botrytis cinerea, 72 h, 100 ppm, read-out: Inhibition Rate of Mycelial Growth against Botrytis cinerea (%)",3%
CNC(=O)/C(=N/OC)c1ccccc1COc1cc(C)ccc1C [dimoxystrobin],Inhibition Rate of Mycelial Growth against Botrytis cinerea (%),Botrytis cinerea; 0.78 ppm,0%
same,Inhibition Rate of Mycelial Growth against Botrytis cinerea (%),Botrytis cinerea; 1.56 ppm,0%
same,Inhibition Rate of Mycelial Growth against Botrytis cinerea (%),Botrytis cinerea; 3.13 ppm,0%
CO/N=C(/C(=O)OC)c1ccccc1COc1ccccc1C [kresoxim-methyl],inhibition at 1 ppm,Pythium graminicola; [1],56%
same,inhibition at 10 ppm,Pythium graminicola; [2],73%
same,inhibition at 100 ppm,Pythium graminicola; [3],62%
same,inhibition at 3.13 ppm,"Botrytis cinerea; Botrytis cinerea, 72 h, 3.13 ppm, read-out: Inhibition Rate of Mycelial Growth against Botrytis cinerea (%)",0%
same,inhibition at 6.25 ppm,"Botrytis cinerea; Botrytis cinerea, 72 h, 6.25 ppm, read-out: Inhibition Rate of Mycelial Growth against Botrytis cinerea (%)",1%
same,inhibition at 12.5 ppm,"Botrytis cinerea; Botrytis cinerea, 72 h, 12.5 ppm, read-out: Inhibition Rate of Mycelial Growth against Botrytis cinerea (%)",1%
same,inhibition at 0.1 ppm,Rhizoctonia solani; [4],30%
same,inhibition at 1 ppm,Rhizoctonia solani; [5],39%
same,inhibition at 10 ppm,Rhizoctonia solani; [6],42%
CON=C(C(=O)OC)c1ccccc1CON=C(C)c1cccc(C(F)(F)F)c1 [trifloxystrobin],inhibition at 0.39 ppm,Botrytis cinerea; [7],0%
same,inhibition at 0.78 ppm,Botrytis cinerea; [8],0%
same,inhibition at 1.56 ppm,Botrytis cinerea; [9],0%
CO/C=C(/C(=O)OC)c1ccccc1COc1cccc(C(F)(F)F)n1 [picoxystrobin],Inhibition Rate of Mycelial Growth against Botrytis cinerea (%),Botrytis cinerea; 6.25 ppm,1%
same,Inhibition Rate of Mycelial Growth against Botrytis cinerea (%),Botrytis cinerea; 12.5 ppm,2%
same,Inhibition Rate of Mycelial Growth against Botrytis cinerea (%),Botrytis cinerea; 25 ppm,3%
"O=[N+]([O-])c1cc(C(F)(F)F)c(Cl)c([N+](=O)[O-])c1Nc1ncc(C(F)(F)F)cc1Cl [fluazinam, 3-chloro-N-(3-chloro-5-trifluoromethyl-2-pyridyl)-α,α,α-trifluoro-2,6-dinitro-p-toluidine]",inhibition at 0.1 ppm,"Pythium graminicola; Pythium graminicola, 72 h, 0.1 ppm, read-out: Inhibition Rate of Mycelial Growth against Pythium graminicola (%)",32%
same,inhibition at 1 ppm,Pythium graminicola; [1],48%
same,inhibition at 10 ppm,Pythium graminicola; [2],60%
same,inhibition at 100 ppm,Pythium graminicola; [3],66%
same,inhibition at 0.04 ppm,"Botrytis cinerea; Botrytis cinerea, 72 h, 0.04 ppm, read-out: Inhibition Rate of Mycelial Growth against Botrytis cinerea (%)",0%
same,inhibition at 0.08 ppm,"Botrytis cinerea; Botrytis cinerea, 72 h, 0.08 ppm, read-out: Inhibition Rate of Mycelial Growth against Botrytis cinerea (%)",0%
same,inhibition at 0.16 ppm,"Botrytis cinerea; Botrytis cinerea, 72 h, 0.16 ppm, read-out: Inhibition Rate of Mycelial Growth against Botrytis cinerea (%)",80%
same,inhibition at 0.1 ppm,Rhizoctonia solani; [4],70%
same,inhibition at 1 ppm,Rhizoctonia solani; [5],77%
same,inhibition at 10 ppm,Rhizoctonia solani; [6],85%
same,inhibition at 100 ppm,"Rhizoctonia solani; Rhizoctonia solani, 96 h, 100 ppm, read-out: Inhibition Rate of Mycelial Growth against Rhizoctonia solani (%)",87%
COC(=O)N(OC)c1ccccc1COc1ccn(-c2ccc(Cl)cc2)n1 [pyraclostrobin],inhibition at 1 ppm,Pythium graminicola; [1],83%
same,inhibition at 10 ppm,Pythium graminicola; [2],100%
same,inhibition at 100 ppm,Pythium graminicola; [3],100%
same,inhibition at 0.39 ppm,Botrytis cinerea; [7],0%
same,inhibition at 0.78 ppm,Botrytis cinerea; [8],1%
same,inhibition at 1.56 ppm,Botrytis cinerea; [9],5%
same,inhibition at 0.1 ppm,Rhizoctonia solani; [4],26%
same,inhibition at 1 ppm,Rhizoctonia solani; [5],55%
same,inhibition at 10 ppm,Rhizoctonia solani; [6],67%

# Reference: US9167815B2, “Agricultural or horticultural fungicide composition and method for controlling plant pathogen” (ISHIHARA SANGYO KAISHA, LTD., priority 2011, dated 2015)
